Test results published in US20180368410A1, “MICROBIOCIDAL OXADIAZOLE DERIVATIVES” (SYNGENTA PARTICIPATIONS AG, priority 2015, published 2018).

Columns and labels:
[1] = tested on: Puccinia recondita f. Sp. Tritici; test: Puccinia recondita f. sp. tritici / wheat / leaf disc preventative (brown rust); type: in vivo, Puccinia recondita f. sp. tritici on wheat cv. Kanzler; conditions: foliar, 200 ppm in the applied formulation, inoculated 1 day after application, assessed 7 to 9 days after application, vs untreated control leaf disks, read-out: disease control
Procedure: Leaf disks or leaf segments of various plant species are cut from plants grown in a greenhouse. The cut leaf disks or segments are placed in multiwell plates (24-well format) onto water agar. The leaf disks are sprayed with a test solution before (preventative) or after (curative) inoculation. Compounds to be tested are prepared as DMSO solutions (max. 10 mg/ml) which are diluted to the appropriate concentration with 0.025% Tween20 just before spraying. The inoculated leaf disks or segments are incubated under defined conditions (temperature, relative humidity, light, etc.) according to the respective test system. A single evaluation of disease level is carried out 3 to 14 days after inoculation, depending on the pathosystem. Percent disease control relative to the untreated check leaf disks or segments is then calculated. Wheat leaf segments cv. Kanzler were placed on agar in multiwell plates (24-well format) and sprayed with the formulated test compound diluted in water. The leaf disks were inoculated with a spore suspension of the fungus 1 day after application. The inoculated leaf segments were incubated at 19′C and 75% relative humidity (rh) under a light regime of 12 hours light/12 hours darkness in a climate cabinet and the activity of a compound was assessed as percent disease control compared to untreated when an appropriate level of disease damage appears in untreated check leaf segments (7 to 9 days after application). The following compounds at 200 ppm in the applied formulation give at least 80% disease control in this test when compared to untreated control leaf disks under the same conditions, which show extensive disease development.

[2] = tested on: Puccinia recondita f. Sp. Triticil; test: Puccinia recondita f. sp. tritici / wheat / leaf disc curative (brown rust); type: in vivo, Puccinia recondita f. sp. tritici on wheat cv. Kanzler; conditions: foliar, 200 ppm in the applied formulation, applied 1 day after inoculation, assessed 6 to 8 days after application, vs untreated control leaf disks, read-out: disease control
Procedure: (§1) Leaf disks or leaf segments of various plant species are cut from plants grown in a greenhouse. The cut leaf disks or segments are placed in multiwell plates (24-well format) onto water agar. The leaf disks are sprayed with a test solution before (preventative) or after (curative) inoculation. Compounds to be tested are prepared as DMSO solutions (max. 10 mg/ml) which are diluted to the appropriate concentration with 0.025% Tween20 just before spraying. The inoculated leaf disks or segments are incubated under defined conditions (temperature, relative humidity, light, etc.) according to the respective test system. A single evaluation of disease level is carried out 3 to 14 days after inoculation, depending on the pathosystem. Percent disease control relative to the untreated check leaf disks or segments is then calculated.
Wheat leaf segments cv. Kanzler are placed on agar in multiwell plates (24-well format). The leaf segments are then inoculated with a spore suspension of the fungus. Plates were stored in darkness at 19° C. and 75% relative humidity. The formulated test compound diluted in water was applied 1 day after inoculation. The leaf segments were incubated at 19° C. and 75% relative humidity under a light regime of 12 hours light/12 hours darkness in a climate cabinet and the activity of a compound was assessed as percent disease control compared to untreated when an appropriate level of disease damage appears in untreated check leaf segments (6 to 8 days after application).
(§2) The following compounds at 200 ppm in the applied formulation give at least 80% disease control in this test when compared to untreated control leaf disks under the same conditions, which show extensive disease development.

Phakopsora pachyrhizi = Phakopsora pachyrhizi / soybean / leaf disc preventative (Asian soybean rust); type: in vivo, Phakopsora pachyrhizi on soybean; conditions: foliar, 200 ppm in the applied formulation, inoculated one day after application, assessed 12 to 14 days after application, vs untreated control leaf disks, read-out: disease control
Procedure: as §1
Soybean leaf disks are placed on water agar in multiwell plates (24-well format) and sprayed with the formulated test compound diluted in water. One day after application leaf discs are inoculated by spraying a spore suspension on the lower leaf surface. After an incubation period in a climate cabinet of 24-36 hours in darkness at 20° C. and 75% rh leaf disc are kept at 20° C. with 12 h light/day and 75% rh. The activity of a compound is assessed as percent disease control compared to untreated when an appropriate level of disease damage appears in untreated check leaf disks (12 to 14 days after application).
as §2

[3] = tested on: Glomerella Lacenarium (Colletotrichum lacenarium); test: Glomerella lagenarium (Colletotrichum lagenarium) liquid culture / cucumber / preventative (anthracnose); type: cell-based; conditions: 20 ppm in the applied formulation, liquid culture in PDB, 24° C., inhibition of growth measured photometrically 3 to 4 days after application, vs untreated control, read-out: disease control
Procedure: Mycelia fragments or conidia suspensions of a fungus prepared either freshly from liquid cultures of the fungus or from cryogenic storage, are directly mixed into nutrient broth. DMSO solutions of the test compound (max. 10 mg/ml) are diluted with 0.025% Tween20 by a factor of 50 and 10 μl of this solution is pipetted into a microtiter plate (96-well format). The nutrient broth containing the fungal spores/mycelia fragments is then added to give an end concentration of the tested compound. The test plates are incubated in the dark at 24° C. and 96% relative humidity. The inhibition of fungal growth is determined photometrically after 2 to 7 days, depending on the pathosystem, and percent antifungal activity relative to the untreated check is calculated.
Conidia of the fungus from cryogenic storage are directly mixed into nutrient broth (PDB—potato dextrose broth). After placing a (DMSO) solution of test compound into a microtiter plate (96-well format), the nutrient broth containing the fungal spores is added. The test plates are incubated at 24° C. and the inhibition of growth is measured photometrically 3 to 4 days after application.
The following compounds at 20 ppm in the applied formulation give at least 80% disease control in this test when compared to untreated control under the same conditions, which show extensive disease development.

O=C(CC1CCCC1)NCc1ccc(-c2noc(C(F)(F)F)n2)cc1 [Compound 1.7, 2-cyclopentyl-N-[[4-[5-(trifluoromethyl)-1,2,4-oxadiazol-3-yl]phenyl]methyl]acetamide]
≥ 80%: pest or weed control at 200 ppm [1] | pest or weed control at 200 ppm [2] | pest or weed control at 200 ppm (Phakopsora pachyrhizi) | inhibition of growth at 20 ppm [3]

O=C(NCc1ccc(-c2noc(C(F)(F)F)n2)cc1)C1CCCCC1 [Compound 1.10, N-[[4-[5-(trifluoromethyl)-1,2,4-oxadiazol-3-yl]phenyl]methyl] cyclohexanecarboxamide]
≥ 80%: pest or weed control at 200 ppm [1] | pest or weed control at 200 ppm (Phakopsora pachyrhizi) | inhibition of growth at 20 ppm [3]

O=C(NCc1ccc(-c2noc(C(F)(F)F)n2)cc1)C1CCCC1 [Compound 1.16, N-[[4-[5-(trifluoromethyl)-1,2,4-oxadiazol-3-yl]phenyl]methyl] cyclopentanecarboxamide]
≥ 80%: pest or weed control at 200 ppm [1] | pest or weed control at 200 ppm [2] | pest or weed control at 200 ppm (Phakopsora pachyrhizi) | inhibition of growth at 20 ppm [3]

CC1(C(=O)NCc2ccc(-c3noc(C(F)(F)F)n3)cc2)CCCCC1 [Compound 1.21, 1-methyl-N-[[4-[5-(trifluoromethyl)-1,2,4-oxadiazol-3-yl]phenyl]methyl] cyclohexanecarboxamide]
≥ 80%: pest or weed control at 200 ppm [1] | pest or weed control at 200 ppm [2] | pest or weed control at 200 ppm (Phakopsora pachyrhizi) | inhibition of growth at 20 ppm [3]

O=C(NCc1ccc(-c2noc(C(F)(F)F)n2)cc1)C1CCC1 [Compound 1.22, N-[[4-[5-(trifluoromethyl)-1,2,4-oxadiazol-3-yl]phenyl]methyl] cyclobutanecarboxamide]
≥ 80%: pest or weed control at 200 ppm [1] | pest or weed control at 200 ppm [2] | pest or weed control at 200 ppm (Phakopsora pachyrhizi) | inhibition of growth at 20 ppm [3]

CC1CC1C(=O)NCc1ccc(-c2noc(C(F)(F)F)n2)cc1 (stereo not drawn) [Compound 1.24, 2-methyl-N-[[4-[5-(trifluoromethyl)-1,2,4-oxadiazol-3-yl]phenyl]methyl] cyclopropanecarboxamide]
≥ 80%: pest or weed control at 200 ppm [1] | pest or weed control at 200 ppm [2] | pest or weed control at 200 ppm (Phakopsora pachyrhizi) | inhibition of growth at 20 ppm [3]

CC1(C(=O)NCc2ccc(-c3noc(C(F)(F)F)n3)cc2)CC1 [Compound 1.25, 1-methyl-N-[[4-[5-(trifluoromethyl)-1,2,4-oxadiazol-3-yl]phenyl]methyl] cyclopropanecarboxamide]
≥ 80%: pest or weed control at 200 ppm [1] | pest or weed control at 200 ppm [2] | pest or weed control at 200 ppm (Phakopsora pachyrhizi) | inhibition of growth at 20 ppm [3]

CC1(C)CC1C(=O)NCc1ccc(-c2noc(C(F)(F)F)n2)cc1 (stereo not drawn) [Compound 1.28, 2,2-dimethyl-N-[[4-[5-(trifluoromethyl)-1,2,4-oxadiazol-3-yl]phenyl]methyl] cyclopropanecarboxamide]
≥ 80%: pest or weed control at 200 ppm [1] | pest or weed control at 200 ppm [2] | pest or weed control at 200 ppm (Phakopsora pachyrhizi) | inhibition of growth at 20 ppm [3]

O=C(NCc1ccc(-c2noc(C(F)(F)F)n2)cc1F)C1CCCO1 (stereo not drawn) [Compound 1.49, N-[[2-fluoro-4-[5-(trifluoromethyl)-1,2,4-oxadiazol-3-yl]phenyl]methyl]tetrahydrofuran-2-carboxamide]
≥ 80%: pest or weed control at 200 ppm [1] | pest or weed control at 200 ppm [2] | pest or weed control at 200 ppm (Phakopsora pachyrhizi) | inhibition of growth at 20 ppm [3]

O=C(CC1CC1)NCc1ccc(-c2noc(C(F)(F)F)n2)cc1 [Compound 1.53, 2-cyclopropyl-N-[[4-[5-(trifluoromethyl)-1,2,4-oxadiazol-3-yl]phenyl]methyl]acetamide]
≥ 80%: pest or weed control at 200 ppm [1] | pest or weed control at 200 ppm [2] | pest or weed control at 200 ppm (Phakopsora pachyrhizi) | inhibition of growth at 20 ppm [3]

CC1CC1C(=O)NCc1ccc(-c2noc(C(F)(F)F)n2)c(F)c1F (stereo not drawn) [Compound 1.77, N-[[2,3-difluoro-4-[5-(trifluoromethyl)-1,2,4-oxadiazol-3-yl]phenyl]methyl]-2-methyl-cyclopropanecarboxamide]
≥ 80%: pest or weed control at 200 ppm [1] | pest or weed control at 200 ppm (Phakopsora pachyrhizi) | inhibition of growth at 20 ppm [3]

CC1(C(=O)NCc2ccc(-c3noc(C(F)(F)F)n3)c(F)c2F)COC1 [Compound 1.85, N-[[2,3-difluoro-4-[5-(trifluoromethyl)-1,2,4-oxadiazol-3-yl]phenyl]methyl]-3-methyl-oxetane-3-carboxamide]
≥ 80%: pest or weed control at 200 ppm [1] | pest or weed control at 200 ppm [2] | inhibition of growth at 20 ppm [3]

O=C(NCc1ccc(-c2noc(C(F)(F)F)n2)cn1)C1CC1(F)F (stereo not drawn) [Compound 1.86, 2,2-difluoro-N-[[5-[5-(trifluoromethyl)-1,2,4-oxadiazol-3-yl]-2-pyridyl]methyl] cyclopropanecarboxamide]
≥ 80%: pest or weed control at 200 ppm [1] | pest or weed control at 200 ppm [2] | inhibition of growth at 20 ppm [3]

O=C(CC1CC1)NCc1ccc(-c2noc(C(F)(F)F)n2)cn1 [Compound 1.87, 2-cyclopropyl-N-[[5-[5-(trifluoromethyl)-1,2,4-oxadiazol-3-yl]-2-pyridyl]methyl]acetamide]
≥ 80%: pest or weed control at 200 ppm [1] | pest or weed control at 200 ppm [2] | inhibition of growth at 20 ppm [3]

O=C(NCc1ccc(-c2noc(C(F)(F)F)n2)cn1)C1CCC1 [Compound 1.88, N-[[5-[5-(trifluoromethyl)-1,2,4-oxadiazol-3-yl]-2-pyridyl]methyl] cyclobutanecarboxamide]
≥ 80%: pest or weed control at 200 ppm [1] | pest or weed control at 200 ppm [2] | inhibition of growth at 20 ppm [3]

CC1CC1C(=O)NCc1ccc(-c2noc(C(F)(F)F)n2)cn1 (stereo not drawn) [Compound 1.89, 2-methyl-N-[[5-[5-(trifluoromethyl)-1,2,4-oxadiazol-3-yl]-2-pyridyl]methyl] cyclopropanecarboxamide]
≥ 80%: pest or weed control at 200 ppm [1] | pest or weed control at 200 ppm [2] | inhibition of growth at 20 ppm [3]

CC1(C(=O)NCc2ccc(-c3noc(C(F)(F)F)n3)cn2)CC1 [Compound 1.90, 1-methyl-N-[[5-[5-(trifluoromethyl)-1,2,4-oxadiazol-3-yl]-2-pyridyl]methyl] cyclopropanecarboxamide]
≥ 80%: pest or weed control at 200 ppm [1] | pest or weed control at 200 ppm [2] | inhibition of growth at 20 ppm [3]

CC1(C(=O)NCCc2ccc(-c3noc(C(F)(F)F)n3)cc2)CC1 [Compound 1.103, 1-methyl-N-[2-[4-[5-(trifluoromethyl)-1,2,4-oxadiazol-3-yl]phenyl]ethyl] cyclopropanecarboxamide]
≥ 80%: pest or weed control at 200 ppm [1] | pest or weed control at 200 ppm (Phakopsora pachyrhizi) | inhibition of growth at 20 ppm [3]
